What was measured:
COVID-19 virus = experiment: In-vitro antiviral CPE test in Vero E6 cells, COVID-19 virus; format: cell-based; settings: Vero E6 cells, 100 TCID50, CPE after 3-4 days; unit not given (drug concentrations 250-15.62 μg/mL); in µg/mL
Vero cells = experiment: Drug cytotoxicity assay (MTT) on Vero cells; format: cell-based, African green monkey; settings: 72 h, Probit regression
Text: Vero cells were subcultured for 1-2 d to make them into flakes, and trypsinized in the presence of clear boundaries, strong three-dimensional sense and strong refractive power, until needle-like holes appeared on the cell surfaces; after the trypsinization solution was absorbed completely, a few milliliters of culture medium were taken to blow away the cells; the cells were counted, diluted to about 5×10^7/L with a culture medium (DMEM containing 10% fetal bovine serum), and then inoculated in a 96-well culture plate; and the cells grew into a monolayer.
Cytotoxicity test: the drugs were diluted at the concentrations shown in Table 3-1 for cytotoxicity assay.

influenza virus [1] = experiment: Effect of drug on virus-induced CPE (MTT, antiviral effective rate), influenza virus in Vero cells; format: cell-based
parainfluenza virus [2] = experiment: Effect of drug on virus-induced CPE (MTT, antiviral effective rate), parainfluenza virus in Vero cells; format: cell-based
IL-1β = experiment: RT-qPCR of IL-1β in lung homogenate of mice infected with COVID-19 Delta virus; settings: mRNA RT-qPCR, NC = 1.00
MCP-1 = experiment: RT-qPCR of MCP-1 in lung homogenate of mice infected with COVID-19 Delta virus; settings: mRNA RT-qPCR, NC = 1.00
COVID-19 Delta virus [3] = experiment: Prophylactic administration, virus titer in lung tissues of mice infected with COVID-19 Delta virus; settings: prophylactic gavage 5 days before infection, Day 5 after infection, TCID50 on VERO E6 cells
COVID-19 Delta virus [4] = experiment: Prophylactic administration, death protection of mice infected with COVID-19 Delta virus; settings: for Death rate / Survival rate / Mean survival: within 5 days of Delta infection, n = 8; for Mean survival: x ± s
Description: hACE2 transgenic C57BL/6 mice were divided (8 mice in each group) into a normal group (NC), a virus infection group (Virus), and drug groups (a COVID-19 Delta virus low-dose (40 mg/kg) group, high-dose (80 mg/kg) group; and a positive control group (Remdesivir 50 mg/kg). Before nasal dripping infection, the drug was administered by gavage 5 days in advance, once a day. After 5 days of continuous gavage, nasal dripping infection was performed, and mice in each COVID-19 virus infection group were infected with COVID-19 Delta virus with 10′ PFU by nasal dripping, except for the normal group who were given PBS by nasal dripping.
After infection, the body weight change was recorded every day, the death of animals within 5 days of infection was recorded, and the mean survival days and mortality rate of 5 days were calculated.

influenza virus [5] = format: in vivo, Kunming mice; settings: 13.0 mg/kg; for Hemagglutination titer inhibition rate (%): Day 5; for Hemagglutination titer: lung suspension, Day 5, […]
parainfluenza virus [6] = format: in vivo, Kunming mice; settings: 13.0 mg/kg; for Hemagglutination titer inhibition rate (%): Day 5; for Hemagglutination titer: lung suspension, Day 5, […]
TNF-α = experiment: Serum TNF-α in mice infected with influenza virus; format: in vivo, ICR mice; settings: Day 5 after influenza virus infection, gavage once a day, x ± s
Description: (§1) On the Day 5 after influenza virus infection, that is, Day 6 after administration, after the mice were fasted with solids for 8 h and weighed, venous blood was collected from the plexus ophthalmicus, and blood from mice in each group was preserved, subjected to serum separation, and stored in a refrigerator for later use. According to the instructions of a test kit, various detection and analysis were carried out, and IL-2 and TNF-α concentrations were calculated based on the standard detection and standard curve plotting.

IL-2 = experiment: Serum IL-2 in mice infected with influenza virus; format: in vivo, ICR mice; settings: Day 5 after influenza virus infection, gavage once a day, x ± s
Description: as §1

influenza virus FM1 = experiment: Action links (Groups I-IV: prevention, treatment, direct inactivation), protection of cells against influenza virus; format: cell-based; settings: for Protection rate (ER %), Group IV: drug and virus mixed and adsorbed for 2 h, then added with cells (direct inactivation); for Protection rate (ER %), Group III: drug solution and virus solution added at the same time (direct inactivation); for Protection rate (ER %), Group II: virus added first, drug added 1 h after adsorption (treatment); for Protection rate (ER %), Group I: virus solution added after 24 h of drug administration (prevention)
parainfluenza virus [7] = experiment: Action links (Groups I-IV: prevention, treatment, direct inactivation), protection of cells against parainfluenza virus; format: cell-based; settings: for Protection rate (ER %), Group IV: drug and virus mixed and adsorbed for 2 h, then added with cells (direct inactivation); for Protection rate (ER %), Group III: drug solution and virus solution added at the same time (direct inactivation); for Protection rate (ER %), Group II: virus added first, drug added 1 h after adsorption (treatment); for Protection rate (ER %), Group I: virus solution added after 24 h of drug administration (prevention)
[8] = high-dose group 80 mg/kg gavage 5 days
[9] = low-dose group 40 mg/kg gavage 5 days
[10] = prophylactic administration, High dose
[11] = prophylactic administration, Low dose

`COc1cc(O)cc(C2OCC3C(c4ccc(OC5OC(CO)C(O)C(O)C5O)c(OC)c4)OCC23)c1` (stereo not shown) [compound 1] was tested, and the “COVID-19 virus IC50” value (COVID-19 virus) was 62.1, the “Maximum non-toxic concentration (TC0)” value (Vero cells) was 0.0067 g/L and the “Median toxic concentration (TC50)” value (Vero cells) was 560 µg/mL. For the same compound, the “Effective rate, ER %, Influenza Virus” value (influenza virus [1]) was 89.02% and the “Effective rate, ER %, Parainfluenza Virus” value (parainfluenza virus [2]) was 99.92%.
In the case of `CCC(CC)COC(=O)[C@H](C)N[P@](=O)(OC[C@H]1O[C@@](C#N)(c2ccc3c(N)ncnn23)[C@H](O)[C@@H]1O)Oc1ccccc1` [Remdesivir, reference compound], the “Expression level of IL-1β in lung homogenate (x ± s)” value (shortened to “Expression level of IL-1β”) (IL-1β; 50 mg/kg, 5 days) is reported as 9.52 ± 6.37, the “Expression level of MCP-1 in lung homogenate (x ± s)” value (MCP-1; 50 mg/kg, 5 days) is reported as 6.88 ± 5.73 and the “Lung virus titer (x ± s, n = 8)” value (COVID-19 Delta virus [3]; 50 mg/kg) is reported as 3.69 ± 1.06. The Death rate (COVID-19 Delta virus [4]; 50 mg/kg) was 75.00%, the Survival rate (COVID-19 Delta virus [4]; 50 mg/kg) was 25.00% and the Mean survival (COVID-19 Delta virus [4]; 50 mg/kg) was 3.88 ± 0.83 days. It also gave a Death protection rate (COVID-19 Delta virus [4]; prophylactic administration, 50 mg/kg, within 5 days of infection) of 75%.
With `COc1ccc([C@H]2OC[C@H]3[C@@H]2CO[C@H]3c2ccc(O[C@@H]3O[C@H](CO)[C@@H](O)[C@H](O)[C@H]3O)c(OC)c2)cc1OC` [Serial No. 2, phillyrin] the “Hemagglutination titer inhibition rate (%)” value (influenza virus [5]) was 43.30%, the Hemagglutination titer (influenza virus [5]) was 20.11 ± 0.351 and the “Hemagglutination titer inhibition rate (%)” value (parainfluenza virus [6]) was 37.52%. The Hemagglutination titer (parainfluenza virus [6]) was 21.63 ± 0.330, the “Expression level of IL-1β” value (IL-1β; [8]) was 5.11 ± 14.34 and the “Expression level of IL-1β” value (IL-1β; [9]) was 10.58 ± 10.22. The “Expression level of MCP-1 in lung homogenate (x ± s)” value (MCP-1; [8]) was 3.66 ± 11.30, the “Expression level of MCP-1 in lung homogenate (x ± s)” value (MCP-1; [9]) was 7.42 ± 12.66 and the TNF-a expression level (TNF-α; High-dose group (26.0 mg/kg)) was 618.38 ± 28.86. The TNF-a expression level (TNF-α; Low-dose group (13.0 mg/kg)) was 683.47 ± 37.37, the IL-2 expression level (IL-2; High-dose group (26.0 mg/kg)) was 262.88 ± 35.66 and the IL-2 expression level (IL-2; Low-dose group (13.0 mg/kg)) was 293.00 ± 21.88. The “Protection rate (ER %), Group IV” value (influenza virus FM1) was 100.86%, the “Protection rate (ER %), Group III” value (influenza virus FM1) was 100.68% and the “Protection rate (ER %), Group II” value (influenza virus FM1) was 75.58%. The “Protection rate (ER %), Group I” value (influenza virus FM1) was 75.86%, the “Protection rate (ER %), Group IV” value (parainfluenza virus [7]) was 100.93% and the “Protection rate (ER %), Group III” value (parainfluenza virus [7]) was 100.67%. The “Protection rate (ER %), Group II” value (parainfluenza virus [7]) was 85.94%, the “Protection rate (ER %), Group I” value (parainfluenza virus [7]) was 84.48% and the “Lung virus titer (x ± s, n = 8)” value (COVID-19 Delta virus [3]; high dose 80 mg/kg) was 2.95 ± 0.57. For the same compound, the “Lung virus titer (x ± s, n = 8)” value (COVID-19 Delta virus [3]; low dose 40 mg/kg) was 3.70 ± 0.25, the Death rate (COVID-19 Delta virus [4]; [10]) was 12.50% and the Survival rate (COVID-19 Delta virus [4]; [10]) was 87.50%. The Mean survival (COVID-19 Delta virus [4]; [10]) was 4.88 ± 0.35 days, the Death rate (COVID-19 Delta virus [4]; [11]) was 75.00% and the Survival rate (COVID-19 Delta virus [4]; [11]) was 25.00%. It also gave a Mean survival (COVID-19 Delta virus [4]; [11]) of 3.88 ± 0.83 days.
With `COc1ccc(C2OCC3C(c4ccc(OC)c(OC)c4)OCC23)cc1O` (stereo not shown) [compound 3] the “COVID-19 virus IC50” value (COVID-19 virus) was 166.5, the “Maximum non-toxic concentration (TC0)” value (Vero cells) was 0.012 g/L and the “Median toxic concentration (TC50)” value (Vero cells) was 310 µg/mL. The “Effective rate, ER %, Influenza Virus” value (influenza virus [1]) was 83.10% and the “Effective rate, ER %, Parainfluenza Virus” value (parainfluenza virus [2]) was 91.41%.
In the case of `COc1cc([C@H]2OC[C@H]3[C@@H]2CO[C@H]3c2ccc(OC)c(OC)c2)ccc1O` [Serial No. 3, phillygenin], the “Hemagglutination titer inhibition rate (%)” value (influenza virus [5]) is reported as 42.20%, the Hemagglutination titer (influenza virus [5]) is reported as 20.50 ± 0.489 and the “Hemagglutination titer inhibition rate (%)” value (parainfluenza virus [6]) is reported as 36.28%. For the same compound, the Hemagglutination titer (parainfluenza virus [6]) was 22.06 ± 0.310, the “Expression level of IL-1β” value (IL-1β; [8]) was 4.93 ± 16.18 and the “Expression level of IL-1β” value (IL-1β; [9]) was 9.98 ± 11.16. The “Expression level of MCP-1 in lung homogenate (x ± s)” value (MCP-1; [8]) was 3.67 ± 10.22, the “Expression level of MCP-1 in lung homogenate (x ± s)” value (MCP-1; [9]) was 6.71 ± 4.38 and the TNF-a expression level (TNF-α; High-dose group (26.0 mg/kg)) was 648.40 ± 27.19. The TNF-a expression level (TNF-α; Low-dose group (13.0 mg/kg)) was 713.48 ± 39.74, the IL-2 expression level (IL-2; High-dose group (26.0 mg/kg)) was 275.59 ± 31.88 and the IL-2 expression level (IL-2; Low-dose group (13.0 mg/kg)) was 306.70 ± 34.88. The “Protection rate (ER %), Group IV” value (influenza virus FM1) was 100.38%, the “Protection rate (ER %), Group III” value (influenza virus FM1) was 100.86% and the “Protection rate (ER %), Group II” value (influenza virus FM1) was 75.51%. For the same compound, the “Protection rate (ER %), Group I” value (influenza virus FM1) was 75.46%, the “Protection rate (ER %), Group IV” value (parainfluenza virus [7]) was 100.18% and the “Protection rate (ER %), Group III” value (parainfluenza virus [7]) was 100.46%. For the same compound, the “Protection rate (ER %), Group II” value (parainfluenza virus [7]) was 85.11%, the “Protection rate (ER %), Group I” value (parainfluenza virus [7]) was 84.15% and the “Lung virus titer (x ± s, n = 8)” value (COVID-19 Delta virus [3]; high dose 80 mg/kg) was 2.98 ± 0.73. For the same compound, the “Lung virus titer (x ± s, n = 8)” value (COVID-19 Delta virus [3]; low dose 40 mg/kg) was 3.47 ± 0.98, the Death rate (COVID-19 Delta virus [4]; [10]) was 12.50% and the Survival rate (COVID-19 Delta virus [4]; [10]) was 87.50%. The Mean survival (COVID-19 Delta virus [4]; [10]) was 4.88 ± 0.35 days, the Death rate (COVID-19 Delta virus [4]; [11]) was 75.00% and the Survival rate (COVID-19 Delta virus [4]; [11]) was 25.00%. The Mean survival (COVID-19 Delta virus [4]; [11]) was 4.13 ± 0.64 days.
